# Key:
# [1] = tested on: asexual-blood-stage (ABS) P. falciparum; test: SYBR green-based P. falciparum asexual growth inhibition assay; assay type: cell-based; conditions: Plasmodium falciparum; established inhibitors of protein translation; read-out: EC50 values, µM PfABS (Table S1)
# Method: The Plasmodium falciparum reference strain 3D7 used throughout this study was cultured as previously described ([39]). Briefly, cultures incubated at 37°C in a humidified atmosphere of 1% O2 and 3% CO2 in balance with N2 were maintained in RPMI 1640 media supplemented with 5% A^+ human red blood cells (provided by the Scottish National Blood Transfusion Service), 25 mM HEPES, 2 mM L-glutamine, 0.5% AlbuMAX II (Gibco), 12 mM sodium bicarbonate, 0.2 mM hypoxanthine, and 20 mg/L gentamicin (pH 7.3).
# Our SYBR green asexual-growth assay was based on a previous report ([45]). In brief, 96-well black clear-bottom plates (Corning) were preprinted with a compound and normalized with DMSO to 0.5% of a total assay volume of 100 μL. Highly synchronized ring-stage parasites and blood were added to a 2% final parasitemia and 1% hematocrit. The compounds were incubated with parasites for 72 h prior to freezing at −20°C (to aid cell lysis). The plate was thawed on ice and lysis buffer (20 mM Tris pH 7.5, 5 mM EDTA, 0.008% [w/v] saponin, […]) containing SYBR green I (Thermo Fisher Scientific) at a final concentration of 0.02% (v/v) was added. The 96-well plate was equilibrated to room temperature for 1 h before fluorescence was determined on a TECAN Infinite Pro 200 microplate reader using green fluorescent protein (GFP) filters (excitation, 485 nm; emission, 535 nm). Data were fitted to a two-parameter equation using GraFit version 7.0 (Erithacus Software), and EC50 values were calculated. An excess of the standard inhibitor mefloquine (10 μM) was used to define 0% parasite growth.
# [2] = molecular target: P. falciparum translation (P. falciparum lysate); test: P. falciparum in vitro translation (PfIVT) assay, lysate-based, luciferase reporter; assay type: biochemical, Plasmodium falciparum; conditions: established inhibitors of protein translation; read-out: IC50 values, µM PfIVT (Table S1)
# Source text: (§1) Our P. falciparum in vitro translation (PfIVT) assay is built upon previously established assays ([14], [17]) and is summarized in Fig. 1A. In this assay, successful reconstitution of Plasmodium protein translation is reported via synthesis of a luciferase reporter. For PfIVT, two independent untranslated regions (UTRs), previously shown to promote strong levels of translation ([17]), were introduced upstream and downstream of the luciferase. The 5′ UTR from P. falciparum histidine-rich protein 3 (PfHrp3) ([18]) was introduced upstream of the reporter gene, and the 3′ UTR from P. falciparum histidine-rich protein 2 (PfHrp2) gene ([19]) was introduced downstream. For the reporter construct to support our complementary human IVT assay (HsIVT), the 5′ UTR was replaced with an internal ribosome entry site (IRES) from encephalomyocarditis virus (EMCV) ([20]) and the 3′ UTR was replaced with a poly(A) tail ([21]). […] Finally, a 30-bp poly(A) tail, present within the vector and downstream of the luciferase gene, was inserted to enhance mRNA stability ([21]).
# (§2) Translationally active P. falciparum or human embryonic kidney (HEK) 293F lysates were supplemented with accessory, helper, amino acid, and energy regeneration solutions (see Materials and Methods for details). In vitro translation reactions were initiated by the addition of purified mRNA to each reaction well. Using this basic assay format, a number of parameters were assessed and optimized, namely, assay temperature, time, mRNA concentration, and reaction volume (summarized in Fig. S2 in the supplemental material). In addition, we compared the luminescence signal of the CBG firefly luciferase with CBG99, derived from the click beetle […] ([18]).
# 3D7 parasites were synchronized following two rounds of treatment with D-sorbitol (5%), as previously described ([40]). The hematocrit was reduced from 5% (for standard culture) to 1.5 to 2% and cultures were transferred into HYPERflasks (Corning). Fresh medium was added once or twice daily. […] Harvested red blood cells (infected) were lysed by incubation in 0.1% (wt/vol) saponin on ice for 10 min with gentle agitation. Free parasites were harvested by centrifugation (2,800 × g, 10 min, 4°C) and washed 3 times in wash buffer (WB; 100 mM potassium acetate, 2.5 mM magnesium acetate, 45 mM HEPES [pH 7.4], 250 mM sucrose, 2 mM dithiothreitol, and 15 μM leupeptin) to remove lysed red blood cell debris. The resulting pellet was resuspended in 1 volume of WB supplemented with cOmplete EDTA-free protease inhibitor cocktail (Roche; 1 tablet/20 mL) and human RNase A inhibitor (Sigma; 5 U/mL). Parasite lysis was achieved by nitrogen cavitation using a prechilled 45-mL Parr cell disruption vessel (1,500 lb/in^2, 60 min, 4°C). To clarify the lysate, it was centrifuged (10,000 × g, 15 min, 4°C), and the supernatant was collected, transferred into fresh tubes, and centrifuged (30,000 × g, 15 min, 4°C). As a quality assurance step for each lysate, the RNA content of the resulting supernatant was determined using a NanoDrop spectrophotometer (Shimadzu). Supernatants with RNA levels of >250 ng/μL were aliquoted (100 μL), flash frozen in liquid nitrogen, and stored at −80°C.
# [3] = tested on: human translation (HEK 293F lysate); test: Human in vitro translation (HsIVT) assay, HEK 293F lysate, luciferase reporter; assay type: biochemical; conditions: for effect on translation in the HsIVT assay (Fig. S3A): 10 µM, three technical replicates; for IC50: weighted mean ± SD from at least two biological replicates, read-out: IC50 in the HsIVT assay (Fig. S3B)
# Source text: as §1, §2
# FreeStyle human embryonic kidney (HEK) 293F cells (Thermo Fisher Scientific) were grown in 500-mL polycarbonate Erlenmeyer vented flasks (Corning) containing FreeStyle 293 expression medium (Life Technologies) upon reaching a density of approximately 2 × 10^6. Cells were then centrifuged at 1,000 × g for 10 min at 4°C, the medium was discarded, and the resulting pellet was washed once in buffer II containing 20 U of human placental RNase inhibitor (Sigma-Aldrich) and cOmplete EDTA-free inhibitor cocktail (Roche) before being centrifuged at 2,800 × g for 10 min. Clarified HEK cell lysate was obtained in the same way as described for P. falciparum lysate.
# PfIVT and HsIVT reactions (5 μL final volume) were performed in 384-well plates (Corning) containing 50% lysate from cells (either P. falciparum or HEK 293F), 10% amino acid solution (final concentration of 400 μM for each amino acid in 60 mM KOH; biotechrabbit), 10% energy recovery solution (final assay concentrations of 40 mM HEPES [pH 7.4], 1.5 mM ATP, 0.15 mM GTP, […] creatine phosphate, and 40 U/mL creatine phosphokinase), 10% helper solution (final assay concentrations of 200 μM cystine, 2% polyethylene glycol 3000 [PEG 3000], 1 mM spermidine, 0.5 mM folinic acid, and 15 μM leupeptin), 10% supplemental salt solution (22.5 mM HEPES [pH 7.4], 50 mM potassium acetate, 1 mM magnesium acetate, 1 mM DTT, 1 U/mL human placental RNase inhibitor, 0.1 mM leupeptin), and 10% cbg99 luciferase mRNA (3,000 ng/mL). A master mix solution containing all components was prepared on ice prior to assays, and 5 μL was dispensed into wells using an automated Integra VIAFLO 16-channel 12.5-μL pipette.
Compound,EC50 [1],IC50 [2],effect on translation in the HsIVT assay (Fig. S3A) [3],inhibition of translation in HsIVT assay (validation) [3],IC50 [3]
"O=C(NCCN1CCCC1)c1cc(-c2ccc(CN3CCOCC3)cc2)nc2ccc(F)cc12 [DDD107498/M5717, reference compound]",0.0008 µM,0.1 µM,little or no effect,,
"CC[C@H]1CN2CCc3cc(OC)c(OC)cc3[C@@H]2C[C@@H]1C[C@H]1NCCc2cc(OC)c(OC)cc21 [Emetine, emetine, reference compound]",0.03 µM,1.8 µM,ablated activity,successfully inhibit translation,800 ± 100 nM
"O=C(CC1NCCCC1O)Cn1cnc2cc(Br)c(Cl)cc2c1=O (stereo not shown) [Halofuginone, halofuginone, reference compound]",0.0004 µM,0.3 µM,ablated activity,successfully inhibit translation,1700 ± 40 nM

# From PMC9211397, “High-Throughput Screening Platform To Identify Inhibitors of Protein Synthesis with Potential for the Treatment of Malaria” (Antimicrobial Agents and Chemotherapy, 2022)
